Measurements: patent US9850283B2, “Macrocyclic inhibitors of the PD-1/PD-L1 and CD80(B7-1)/PD-L1 protein/protein interactions” (BRISTOL-MYERS SQUIBB COMPANY, priority 2013, dated 2017)
Residues, ends and D or L forms follow the SMILES beside them.

Tests used:
[1] = target: T1, LK35.2-hPD-L1 cells / PE-labeled PD-1-Ig (Homo sapiens, UniProt Q9NZQ7); experiment: LK35.2-hPD-L1 cell binding high-content screening assay; type: cell-based; conditions: cell binding assay, cell line not given; cluster symbol; read-out: CBA IC50 cluster
T1 construct: expressed in transfected cells; host or cells: LK35.2 mouse B cell line
Summary of the method: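 Using overnight-cultured LK35.2-hPD-L1 mouse B cells, compound was co-incubated with phycoerythrin-tagged human PD-1-Ig (final 1 nM) at 37 °C for one hour. Unbound label was removed by triple dPBS washing prior to high-content image acquisition and analysis.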

[2] = target: T2, Human PD-L1/PD-1 (Homo sapiens, UniProt Q9NZQ7); experiment: HTRF PD-1-Ig/PD-L1-His binding assay (human PD-L1); conditions: cluster symbol; read-out: HTRF IC50 cluster
T2 construct: made in house; host or cells: HEK293T
Summary of the method: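 Ig- and His-fused extracellular PD-1/PD-L1 binding in BSA/Tween-20 dPBS. HTRF with Eu anti-Ig (1 nM final) and APC anti-His (20 nM final).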

T2 sequence (Q9NZQ7 with tags, fused parts or gaps): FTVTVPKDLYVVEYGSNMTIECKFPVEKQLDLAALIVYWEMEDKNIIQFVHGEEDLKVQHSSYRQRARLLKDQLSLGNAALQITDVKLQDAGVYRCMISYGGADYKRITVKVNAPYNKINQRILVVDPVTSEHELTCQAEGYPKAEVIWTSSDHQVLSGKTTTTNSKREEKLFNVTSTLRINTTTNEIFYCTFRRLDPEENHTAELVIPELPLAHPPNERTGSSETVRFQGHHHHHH
T1 sequence (Q9NZQ7 19-290): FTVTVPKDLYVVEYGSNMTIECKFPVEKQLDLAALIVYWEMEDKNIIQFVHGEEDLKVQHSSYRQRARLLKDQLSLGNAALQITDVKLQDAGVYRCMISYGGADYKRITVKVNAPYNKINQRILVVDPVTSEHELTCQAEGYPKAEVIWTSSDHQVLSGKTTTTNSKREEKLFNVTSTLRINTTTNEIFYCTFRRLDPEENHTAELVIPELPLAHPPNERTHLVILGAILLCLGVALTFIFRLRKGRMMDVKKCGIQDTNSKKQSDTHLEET

SMILES	IC50 [1]	IC50 [2]
CCCCC1C(=O)N[C@@H](CCC(=O)O)C(=O)N[C@@H](CC(=O)O)C(=O)N[C@@H](C(C)C)C(=O)N(C)[C@@H](Cc2ccccc2)C(=O)N[C@@H](Cc2ccc(O)cc2)C(=O)N(C)CC(=O)N[C@@H](Cc2c[nH]c3ccccc23)C(=O)N[C@@H](Cc2ccc(O)cc2)C(=O)N[C@@H](CC(C)C)C(=O)N[C@H](C(=O)NCC(N)=O)CSCC(=O)N[C@@H](Cc2ccccc2)C(=O)N(C)[C@@H](Cc2ccccc2)C(=O)N1C (some centres unmarked) [Example 3500] (HELM PEPTIDE1{[O=C(C[*:3])[*:2]].F.[meF].[CCCCC(C(=O)[*:2])N(C)[*:1]].E.D.V.[meF].Y.[Sar].W.Y.L.C.G.[am]}$PEPTIDE1,PEPTIDE1,1:R3-14:R3$$$V2.0)	> 74.3 nM	> 30.5 nM
CCCC[C@H]1C(=O)N(C)CC(=O)N[C@@H](CCCNC(=N)N)C(=O)N[C@@H](C(C)C)C(=O)N(C)[C@@H](Cc2ccccc2)C(=O)N[C@@H](Cc2ccc(O)cc2)C(=O)N(C)CC(=O)N[C@@H](Cc2c[nH]c3ccccc23)C(=O)N[C@@H](Cc2ccc(O)cc2)C(=O)N[C@@H](CC(C)C)C(=O)N[C@H](C(=O)NCC(N)=O)CSCC(=O)N[C@@H](Cc2ccccc2)C(=O)N(C)[C@@H](Cc2ccccc2)C(=O)N1C [Example 3501] (HELM PEPTIDE1{[O=C(C[*:3])[*:2]].F.[meF].[CCCC[C@@H](C(=O)[*:2])N(C)[*:1]].[Sar].R.V.[meF].Y.[Sar].W.Y.L.C.G.[am]}$PEPTIDE1,PEPTIDE1,1:R3-14:R3$$$V2.0)	4.78 to 72.9 nM	6.76 to 30.3 nM
CCCC[C@H]1C(=O)N(C)CC(=O)N[C@@H](CCC(=O)O)C(=O)N[C@@H](C(C)C)C(=O)N(C)[C@@H](Cc2ccccc2)C(=O)N[C@@H](Cc2ccc(O)cc2)C(=O)N(C)CC(=O)N[C@@H](Cc2c[nH]c3ccccc23)C(=O)N[C@@H](Cc2ccc(O)cc2)C(=O)N[C@@H](CC(C)C)C(=O)N[C@H](C(=O)NCC(N)=O)CSCC(=O)N[C@@H](Cc2ccccc2)C(=O)N(C)[C@@H](Cc2ccccc2)C(=O)N1C [Example 3502] (HELM PEPTIDE1{[O=C(C[*:3])[*:2]].F.[meF].[CCCC[C@@H](C(=O)[*:2])N(C)[*:1]].[Sar].E.V.[meF].Y.[Sar].W.Y.L.C.G.[am]}$PEPTIDE1,PEPTIDE1,1:R3-14:R3$$$V2.0)	4.78 to 72.9 nM	6.76 to 30.3 nM
CCCC[C@H]1C(=O)N(C)CC(=O)N[C@@H](CC(=O)O)C(=O)N[C@@H](Cc2ccc(O)cc2)C(=O)N(C)[C@@H](Cc2ccccc2)C(=O)N[C@@H](Cc2ccc(O)cc2)C(=O)N(C)CC(=O)N[C@@H](Cc2c[nH]c3ccccc23)C(=O)N[C@@H](Cc2ccc(O)cc2)C(=O)N[C@@H](CC(C)C)C(=O)N[C@H](C(=O)NCC(N)=O)CSCC(=O)N[C@@H](Cc2ccccc2)C(=O)N(C)[C@@H](Cc2ccccc2)C(=O)N1C [Example 3503] (HELM PEPTIDE1{[O=C(C[*:3])[*:2]].F.[meF].[CCCC[C@@H](C(=O)[*:2])N(C)[*:1]].[Sar].D.Y.[meF].Y.[Sar].W.Y.L.C.G.[am]}$PEPTIDE1,PEPTIDE1,1:R3-14:R3$$$V2.0)	> 74.3 nM	> 30.5 nM
CCCC[C@H]1C(=O)N(C)CC(=O)N[C@@H](CC(=O)O)C(=O)N[C@@H](C(C)C)C(=O)N[C@@H](Cc2ccc(O)cc2)C(=O)N[C@@H](Cc2ccc(O)cc2)C(=O)N(C)CC(=O)N[C@@H](Cc2c[nH]c3ccccc23)C(=O)N[C@@H](Cc2ccc(O)cc2)C(=O)N[C@@H](CC(C)C)C(=O)N[C@H](C(=O)NCC(N)=O)CSCC(=O)N[C@@H](Cc2ccccc2)C(=O)N(C)[C@@H](Cc2ccccc2)C(=O)N1C [Example 3504] (HELM PEPTIDE1{[O=C(C[*:3])[*:2]].F.[meF].[CCCC[C@@H](C(=O)[*:2])N(C)[*:1]].[Sar].D.V.Y.Y.[Sar].W.Y.L.C.G.[am]}$PEPTIDE1,PEPTIDE1,1:R3-14:R3$$$V2.0)	> 74.3 nM	> 30.5 nM
CCCC[C@H]1C(=O)N(C)CC(=O)N[C@@H](CC(=O)O)C(=O)N[C@@H](C(C)C)C(=O)N(C)[C@@H](Cc2ccccc2)C(=O)N[C@@H](CC(C)C)C(=O)N(C)CC(=O)N[C@@H](Cc2c[nH]c3ccccc23)C(=O)N[C@@H](Cc2ccc(O)cc2)C(=O)N[C@@H](CC(C)C)C(=O)N[C@H](C(=O)NCC(N)=O)CSCC(=O)N[C@@H](Cc2ccccc2)C(=O)N(C)[C@@H](Cc2ccccc2)C(=O)N1C [Example 3505] (HELM PEPTIDE1{[O=C(C[*:3])[*:2]].F.[meF].[CCCC[C@@H](C(=O)[*:2])N(C)[*:1]].[Sar].D.V.[meF].L.[Sar].W.Y.L.C.G.[am]}$PEPTIDE1,PEPTIDE1,1:R3-14:R3$$$V2.0)	4.78 to 72.9 nM	6.76 to 30.3 nM
CCCC[C@H]1C(=O)N(C)CC(=O)N[C@@H](CC(=O)O)C(=O)N[C@@H](C(C)C)C(=O)N(C)[C@@H](Cc2ccccc2)C(=O)N[C@@H](CCCNC(=N)N)C(=O)N(C)CC(=O)N[C@@H](Cc2c[nH]c3ccccc23)C(=O)N[C@@H](Cc2ccc(O)cc2)C(=O)N[C@@H](CC(C)C)C(=O)N[C@H](C(=O)NCC(N)=O)CSCC(=O)N[C@@H](Cc2ccccc2)C(=O)N(C)[C@@H](Cc2ccccc2)C(=O)N1C [Example 3506] (HELM PEPTIDE1{[O=C(C[*:3])[*:2]].F.[meF].[CCCC[C@@H](C(=O)[*:2])N(C)[*:1]].[Sar].D.V.[meF].R.[Sar].W.Y.L.C.G.[am]}$PEPTIDE1,PEPTIDE1,1:R3-14:R3$$$V2.0)	4.78 to 72.9 nM	0.385 to 6.74 nM
CCCC[C@H]1C(=O)N(C)CC(=O)N[C@@H](CC(=O)O)C(=O)N[C@@H](C(C)C)C(=O)N(C)[C@@H](Cc2ccccc2)C(=O)N[C@@H](CCC(=O)O)C(=O)N(C)CC(=O)N[C@@H](Cc2c[nH]c3ccccc23)C(=O)N[C@@H](Cc2ccc(O)cc2)C(=O)N[C@@H](CC(C)C)C(=O)N[C@H](C(=O)NCC(N)=O)CSCC(=O)N[C@@H](Cc2ccccc2)C(=O)N(C)[C@@H](Cc2ccccc2)C(=O)N1C [Example 3507] (HELM PEPTIDE1{[O=C(C[*:3])[*:2]].F.[meF].[CCCC[C@@H](C(=O)[*:2])N(C)[*:1]].[Sar].D.V.[meF].E.[Sar].W.Y.L.C.G.[am]}$PEPTIDE1,PEPTIDE1,1:R3-14:R3$$$V2.0)	> 74.3 nM	6.76 to 30.3 nM

Now from value to molecule:

IC50 [1]	IC50 [2]	SMILES
4.78 to 72.9 nM	0.385 to 6.74 nM	CCCC[C@H]1C(=O)N(C)CC(=O)N[C@@H](CC(=O)O)C(=O)N[C@@H](C(C)C)C(=O)N(C)[C@@H](Cc2ccccc2)C(=O)N[C@@H](Cc2ccc(O)cc2)C(=O)N(C)CC(=O)N[C@@H](Cc2c[nH]c3ccccc23)C(=O)N[C@@H](Cc2ccc(O)cc2)C(=O)N[C@@H](CCCNC(=N)N)C(=O)N[C@H](C(=O)NCC(N)=O)CSCC(=O)N[C@@H](Cc2ccccc2)C(=O)N(C)[C@@H](Cc2ccccc2)C(=O)N1C [Example 3508] (HELM PEPTIDE1{[O=C(C[*:3])[*:2]].F.[meF].[CCCC[C@@H](C(=O)[*:2])N(C)[*:1]].[Sar].D.V.[meF].Y.[Sar].W.Y.R.C.G.[am]}$PEPTIDE1,PEPTIDE1,1:R3-14:R3$$$V2.0)
> 74.3 nM	6.76 to 30.3 nM	CCCC[C@H]1C(=O)N(C)CC(=O)N[C@@H](CC(=O)O)C(=O)N[C@@H](C(C)C)C(=O)N(C)[C@@H](Cc2ccccc2)C(=O)N[C@@H](Cc2ccc(O)cc2)C(=O)N(C)CC(=O)N[C@@H](Cc2c[nH]c3ccccc23)C(=O)N[C@@H](Cc2ccc(O)cc2)C(=O)N[C@@H](CCC(=O)O)C(=O)N[C@H](C(=O)NCC(N)=O)CSCC(=O)N[C@@H](Cc2ccccc2)C(=O)N(C)[C@@H](Cc2ccccc2)C(=O)N1C [Example 3509] (HELM PEPTIDE1{[O=C(C[*:3])[*:2]].F.[meF].[CCCC[C@@H](C(=O)[*:2])N(C)[*:1]].[Sar].D.V.[meF].Y.[Sar].W.Y.E.C.G.[am]}$PEPTIDE1,PEPTIDE1,1:R3-14:R3$$$V2.0)
> 74.3 nM	> 30.5 nM	CCCCC1C(=O)N[C@@H](CCCNC(=N)N)C(=O)N[C@@H](CC(=O)O)C(=O)N[C@@H](C(C)C)C(=O)N(C)[C@@H](Cc2ccccc2)C(=O)N[C@@H](Cc2ccc(O)cc2)C(=O)N(C)CC(=O)N[C@@H](Cc2c[nH]c3ccccc23)C(=O)N[C@@H](Cc2ccc(O)cc2)C(=O)N[C@@H](CC(C)C)C(=O)N[C@H](C(=O)NCC(N)=O)CSCC(=O)N[C@@H](Cc2ccccc2)C(=O)N(C)[C@@H](Cc2ccccc2)C(=O)N1C (some centres unmarked) [Example 3510] (HELM PEPTIDE1{[O=C(C[*:3])[*:2]].F.[meF].[CCCCC(C(=O)[*:2])N(C)[*:1]].R.D.V.[meF].Y.[Sar].W.Y.L.C.G.[am]}$PEPTIDE1,PEPTIDE1,1:R3-14:R3$$$V2.0)
4.78 to 72.9 nM	> 30.5 nM	CCCC[C@H]1C(=O)N(C)CC(=O)N[C@@H](CC(=O)O)C(=O)N[C@@H](C(C)C)C(=O)N(C)[C@@H](Cc2ccccc2)C(=O)N[C@@H](Cc2ccc(O)cc2)C(=O)N(C)[C@@H](Cc2ccc(O)cc2)C(=O)N[C@@H](Cc2c[nH]c3ccccc23)C(=O)N[C@@H](Cc2ccc(O)cc2)C(=O)N[C@@H](CC(C)C)C(=O)N[C@H](C(=O)NCC(N)=O)CSCC(=O)N[C@@H](Cc2ccccc2)C(=O)N(C)[C@@H](Cc2ccccc2)C(=O)N1C [Example 3511] (HELM PEPTIDE1{[O=C(C[*:3])[*:2]].F.[meF].[CCCC[C@@H](C(=O)[*:2])N(C)[*:1]].[Sar].D.V.[meF].Y.[meY].W.Y.L.C.G.[am]}$PEPTIDE1,PEPTIDE1,1:R3-14:R3$$$V2.0)
4.78 to 72.9 nM	0.385 to 6.74 nM	CCCC[C@H]1C(=O)N(C)CC(=O)N[C@@H](CC(=O)O)C(=O)N[C@@H](C(C)C)C(=O)N(C)[C@@H](Cc2ccccc2)C(=O)N[C@@H](Cc2ccc(O)cc2)C(=O)N(C)[C@@H](CCC(=O)O)C(=O)N[C@@H](Cc2c[nH]c3ccccc23)C(=O)N[C@@H](Cc2ccc(O)cc2)C(=O)N[C@@H](CC(C)C)C(=O)N[C@H](C(=O)NCC(N)=O)CSCC(=O)N[C@@H](Cc2ccccc2)C(=O)N(C)[C@@H](Cc2ccccc2)C(=O)N1C [Example 3512] (HELM PEPTIDE1{[O=C(C[*:3])[*:2]].F.[meF].[CCCC[C@@H](C(=O)[*:2])N(C)[*:1]].[Sar].D.V.[meF].Y.[meE].W.Y.L.C.G.[am]}$PEPTIDE1,PEPTIDE1,1:R3-14:R3$$$V2.0)
